Ten molecules from patent publication US8067456B2 (AEterna Zentaris GmbH, priority 2004, dated 2011) can be followed below.

Converted amounts (≈) assume the structure as drawn. Where two headings read alike, the source gives them in different places.

One series concerns the target T1, LHRH receptor (Rattus norvegicus, UniProt P30969).
T1 construct: rat pituitary cells which naturally strongly express the LHRH receptor; from tissue; host or cells: rat pituitary cells (membrane preparation)
T1 sequence (P30969 1-327): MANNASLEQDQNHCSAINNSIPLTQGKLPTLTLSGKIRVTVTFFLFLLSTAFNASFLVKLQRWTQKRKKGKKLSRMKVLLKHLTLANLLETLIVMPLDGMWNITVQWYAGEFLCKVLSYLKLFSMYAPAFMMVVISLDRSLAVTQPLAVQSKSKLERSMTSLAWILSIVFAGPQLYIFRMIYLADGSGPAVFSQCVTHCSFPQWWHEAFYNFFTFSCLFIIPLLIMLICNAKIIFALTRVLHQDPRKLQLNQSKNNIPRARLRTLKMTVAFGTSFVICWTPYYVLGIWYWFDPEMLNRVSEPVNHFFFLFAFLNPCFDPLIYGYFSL
As to the kind of experiment: LHRH receptor-ligand binding assay (membrane preparations from rat pituitary cells). The conditions noted are these: competition with 0.05 nM [125I][D-Trp6]-LHRH, 90 min, 4° C., rat pituitary membranes. On the procedure:
Heterologous competition experiments were carried out using membrane preparations from rat pituitary cells which naturally strongly express the LHRH receptor. The ligand used in this case was [^125I][D-Trp^6]-LHRH in a concentration of 0.05 nM. Unlabeled [D-Trp^6]-LHRH was used in a concentration of 1 μM, or the test substance was used in the desired concentration, for competition. After an incubation time of 90 minutes at 4° C., the bound ligand was measured by scintillation (Halmos et al., Proc. Natl. Acad. Sci. USA, 1996, 93, 2398).
The result obtained was the percentage proportion of bound ligand in the presence of the competitor related to the specifically bound proportion of the control (see result for selected compounds in Table 3). EC50 values were calculated by nonlinear regression analysis of the competition plots.

A further series addresses T2, rat LHRH receptor (Rattus norvegicus, UniProt P30969).
T2 construct: expressed in transfected cells; host or cells: LTK cells (mouse fibroblasts, ATCC CCL-1.3)
T2 sequence (P30969 1-327): T1 sequence (P30969 1-327)
Description: LHRH receptor-ligand binding assay (transfected LTK cells). The conditions noted are these: LTK cells transfected with rat LHRH receptor, 125I-triptorelin tracer, 37° C., 60 min; read-out: Binding to r-LHRHR EC50. Here is the method: ^125I-Triptorelin [^125I-(D)-Trp6-GnRH] was purchased from Biotrend (Cologne, Germany).
The specific activity was in each case 2.13 Ci/mmol.
LTK cells (mouse fibroblasts: ATCC No. CCL-1.3) which have been transfected with the rat LHRH receptor are cultivated in DMEM medium (Invitrogen Life Technologies, Germany) with penicillin (100 I.U./ml), streptomycin (0.1 mg/ml) and glutamine (0.01 mol/l) and 10% fetal calf serum (FCS; Invitrogen Life Technologies, Germany) on plastic tissue culture plates (Nunc, Germany, 245×245-20 mm).
80% confluent cell culture plates are washed twice with 50 ml of phosphate-buffered saline (PBS) and then detached with 0.01 M EDTA solution. The cells are pelleted by centrifugation at 200·g for 5 min in a laboratory centrifuge (Kendro, Germany). The cell pellet is resuspended in 3 ml of binding medium (DMEM; 10 mM Hepes; 0.5% BSA; 0.1% […]; 1 g/l bacitracin (add fresh, stock 100×); 0.1 g/l SBTI (add fresh, stock 1000×) and the cell count is determined by Trypan blue staining in a Neubauer counting chamber. The cell suspension is adjusted with binding medium to a concentration of 5×10^5 cells/0.05 ml.
Binding studies for competition plots are carried out as duplicates. The test substances are employed as 10 mM DMSO solutions. They are diluted to 4 times the final concentration employed with binding medium. 25 μl of the substance dilution are mixed with 25 μl of tracer solution (^125I-triptorelin or ^125I-cetrorelix). The tracer concentration is adjusted to approx. 50 000 cpm (measured in a Cobra II, γ counter. PE Liefe Science, Germany) in the final reaction volume of 100 μl.
200 μl of silicone/liquid paraffin mixture (84%:16%) are introduced into 650 μl conical tubes (Roth. Germany). 50 μl of the cell suspension are pipetted thereon, followed by 50 μl of the test substance/tracer mixture. The tubes are capped and incubated with vertical rotation in an incubator at 37° C. for 60 min. After incubation, the samples are centrifuged in a centrifuge (Kendro, Germany) at 900 rpm and subsequently shock-frozen in liquid N2. The tip with the cell pellet is cut off and transferred into prepared counting vials (Roth, Germany). The remainder of the conical tube with the remaining supernatant is likewise transferred into a counting vial. The measurement takes place in a γ counter for 1 min/sample.
Evaluation of the samples takes place after calculation of the specific binding compared with untreated cells, after subtraction of the nonspecific binding (excess of unlabeled ligand, 1 μM) by means of GraphPad Prism or alternatively by means of OMMM software.

A short description of series [1]: Saturation solubility in water. The format is physicochemical. The conditions noted are these: maximum of 1% DMSO added, HPLC UV; for solubility: water, thermodynamic from solid. On the procedure:
The saturation solubility in water was determined in accordance with the following description: to initiate dissolving of the substances and to improve the wetting of the samples, a maximum of 1% DMSO was added. The content was checked by using an HPLC UV method.

The nature of series [2]: Metabolic stability in human liver microsomes. To be noted: 1 μM, 37° C., NADPH. In kind it is in vitro ADME. On the procedure:
The metabolic stability in relation to liver microsomes (species human, rat) was determined in accordance with the following description: the substances were incubated at a test concentration of 1 […] An HPLC MS/MS method was subsequently used to quantify the unmetabolized amount of starting compound relative to 100%.
(Liver microsomes are vesicles of endoplasmic reticulum, rich in cytochrome P450 enzymes.)

Series [3] relates to LHRH-stimulated LH secretion from rat pituitary cells. As to the kind of experiment: Inhibition of LHRH-induced LH secretion from rat pituitary cells in vitro. The format is cell-based. On the procedure: The LH concentration in cell culture supernatants was measured using the rat luteinizing hormone (rLH) enzyme immunoassay (EIA) system ELISA (RPN 2562) from Amersham Pharmacia Biotech. All other chemicals used were from commercial sources in the highest purity available.
Juvenile male Wistar rats (Harlan Winkelmann, Germany) were sacrificed by decapitation, and the pituitaries were removed and taken up in Hanks' buffer (HBSS) with 0.3% BSA and 10 mM HEPES (pH 7.4). Pituitaries from 20 rats were required to carry out one experiment. The cells of the anterior lobe of the pituitary were separated from the remaining tissue by incubation in Hanks' buffer with 10 mM HEPES (pH 7.4), 0.3% BSA, 1 mg/ml hyaluronidase (type VIII), 1 mg/ml soybean trypsin inhibitor, 10 μg/ml DNAsel and 1 mg/ml papain at 37° C. for 30 minutes A sterile Pasteur pipette was used to disperse the cells, and they were subsequently pelleted by centrifugation. The cells were seeded in a density of 2.5×10^5 cells/well of a collagen-coated 48-well plate (Becton Dickinson) in DMEM medium (Invitrogen Life Technologies, Germany) with 10% fetal calf serum (FCS; Invitrogen Life Technologies, Germany), 10 mill nonessential amino acids and 10 mill Pen/Strep (penicillin/streptomycin).
The medium was changed after incubation at 37° C., 5% CO2 and 95% humidity for 48 h. The medium was replaced by LHRH-containing (10 nM) medium or medium with LHRH (10 nM) and test substance in the concentration indicated (table). After a further incubation for 3 hours, the cell supernatant was harvested and frozen at −20° C. The LH content was determined by means of ELISA in triplicate determination in accordance with the manufacturer's (Amersham Pharmacia Biotech) instructions.
In the following table, “% Inhibition” describes the quotient of LHRH-stimulated LH secretion with (“LH (ng/ml)” and without the addition of the test substance. The values originate from different, independent experiments.

Where [4] appears, read: test substance 3.3 × 10^−8 M, LHRH 10 nM, 3 hours.

In the case of `CCC(C)[C@H](NC(=O)Cc1ccc(F)cc1F)C(=O)N[C@]1(C(=O)N[C@H](C(N)=S)C(C)CC)CCc2[nH]c3c(Cl)cc(F)cc3c2C1` (stereo partly drawn) [Compound 66, (R)-8-chloro-3-{(S)-2-[2-(2,4-difluorophenyl)acetylamino]-3-methylpentanoylamino}-6-fluoro-2,3,4,9-tetrahydro-1H-carbazole-3-carboxylic acid ((S)-2-methyl-1-thiocarbamoylbutyl)amide], at LHRH receptor, the EC50 amounted to 0.72 nM. As to “benzyl[(S)-1-[(R)-3-((S)-carbamoyl-2-methylbutylcarbamoyl)-6,8-dichloro-2,3,4,9-tetrahydro-1H-carbazol-3-ylcarbamoyl]-3-(4-phosphonooxyphenyl)propyl]-carbamate [Compound 11]”, the EC50 at rat LHRH receptor was found to be 17.2 nM. Further, the “Saturation solubility in water” value in series [1] turned out to be 39.9 µg/mL. Besides, the “Metabolic stability (human) [1 h, % recovery]” value in series [2] is recorded as 77%. Turning to `CCC(C)[C@H](NC(=O)[C@@]1(NC(=O)[C@H](CCc2ccc(O)cc2)NC(=O)OCc2ccccc2)CCc2[nH]c3c(Cl)cc(Cl)cc3c2C1)C(N)=S` (stereo partly drawn) [Compound 10, benzyl[(S)-1-[(R)-6,8-dichloro-3-((S)-2-methyl-1-thiocarbamoylbutylcarbamoyl)-2,3,4,9-tetrahydro-1H-carbazol-3-ylcarbamoyl]-3-(4-hydroxyphenyl)propyl]carbamate], at rat LHRH receptor, the EC50 came out at 7.5 nM. For the same molecule, the inhibition at 0.033 µM in series [3] (Rattus norvegicus, test substance 3.3 × 10^−8 M, LHRH 10 nM, 3 hours, read-out: % Inhibition) was 39%. The same molecule showed an inhibition at 0.0033 µM in series [3] (Rattus norvegicus, test substance 3.3 × 10^−9 M, LHRH 10 nM, 3 hours) of 0%. The “LH (ng/ml) ± SD” value in series [3] (setting [4]) is 118.7 ± 11.6 ng/mL; in series [3] (test substance 3.3 × 10^−9 M, LHRH 10 nM, 3 hours), 198.8 ± 4.2 ng/mL. Regarding `CCC(C)[C@H](NCCc1ccc(F)cc1)C(=O)N[C@]1(C(=O)N[C@H](C(N)=S)C(C)CC)CCc2[nH]c3c(Cl)cc(F)cc3c2C1` (stereo partly drawn) [Compound 67, (R)-8-chloro-6-fluoro-3-{(S)-2-[2-(4-fluorophenyl)ethylamino]-3-methylpentanoylamino}-2,3,4,9-tetrahydro-1H-carbazole-3-carboxylic acid ((S)-2-methyl-1-thiocarbamoylbutyl)amide], on LHRH receptor, the concentration giving a half-maximal response (EC50) amounted to 6.9 nM.

Molecule `CCC(C)[C@H](NC(=O)[C@@]1(NC(=O)[C@@H](NC(=O)Cc2ccccc2F)C(C)CC)CCc2[nH]c3c(C(F)(F)F)cccc3c2C1)C(N)=O` (stereo partly drawn) [Compound 75, (R)-3-{(S)-2-[2-(2-fluorophenyl)acetylamino]-3-methylpentanoylamino}-8-trifluoromethyl-2,3,4,9-tetrahydro-1H-carbazole-3-carboxylic acid ((S)-1-carbamoyl-2-methylbutyl)amide] yielded an EC50 at LHRH receptor of 0.59 nM. In turn, `CC[C@H](C)[C@H](NC(=O)[C@@]1(NC(=O)[C@H](Cc2ccc(OP(=O)(O)O)cc2)NC(=O)OCc2ccccc2)CCc2[nH]c3c(Cl)cc(Cl)cc3c2C1)C(N)=O` [Compound 9] registered a solubility in series [1] of 151 µg/mL (≈ 191 µM).

On to `CCC(C)C(NC(=O)C1(NC(=O)C(CCc2ccc(O)cc2)NC(=O)OCc2ccccc2)CCc2[nH]c3c(Cl)cc(Cl)cc3c2C1)C(N)=O` (stereo not drawn) [Example 303 from WO 03/051837 A2, Benzyl [1-[3-(1-carbamoyl-2-methylbutylcarbamoyl)-6,8-dichloro-2,3,4,9-tetrahydro-1H-carbazol-3-ylcarbamoyl]-3-(4-hydroxyphenyl)propyl]carbamate, reference compound], for which the solubility in series [1] came to 0.35 µg/mL (≈ 0.484 µM). As to `CCC(C)[C@H](NC(=O)[C@@]1(NC(=O)[C@@H](NC(=O)OCc2ccc(F)cc2)C(C)CC)CCc2[nH]c3c(Cl)cc(Cl)cc3c2C1)C(N)=O` (stereo partly drawn) [Compound 48, 4-fluorobenzyl {(S)-1-[(R)-3-((S)-1-carbamoyl-2-methylbutylcarbamoyl)-6,8-dichloro-2,3,4,9-tetrahydro-1H-carbazol-3-ylcarbamoyl]-2-methylbutyl}carbamate], the 50% effective concentration (EC50) at LHRH receptor was 8 nM. As for `CCC(C)C(NC(=O)OCc1ccccc1)C(=O)NC1(C(=O)NC(C(N)=O)C2CCCCC2)CCc2[nH]c3c(Cl)cc(Cl)cc3c2C1` (stereo not drawn) [Example 300 from WO 03/051837 A2, reference compound], in series [1], the “Saturation solubility in water” value amounted to 0.38 µg/mL. Take `CCC(C)[C@H](NC(=O)[C@@]1(NC(=O)[C@@H](NC(=O)Cc2ccccc2F)C(C)CC)CCc2[nH]c3c(Cl)cc(Cl)cc3c2C1)C(N)=O` (stereo partly drawn) [Compound 4, (R)-6,8-dichloro-3-{(S)-2-[2-(2-fluorophenyl)acetylamino]-3-methylpentanoylamino}-2,3,4,9-tetrahydro-1H-carbazole-3-carboxylic acid ((S)-1-carbamoyl-2-methylbutyl)amide]: the EC50 on rat LHRH receptor worked out at 4.8 nM. This molecule also registered an inhibition at 0.033 µM in series [3] (Rattus norvegicus, 3 h) of 67%. The “LH (ng/ml) ± SD” value in series [3] (setting [4]) amounted to 79.3 ± 5.7 ng/mL.

What is called EC50 is the concentration at which the effect is half-maximal. For orientation: inhibition means how much of the control response was suppressed. As a reminder, the solubility is how much of the substance goes into solution per volume. Low values mean a poorly soluble substance, high ones a readily soluble substance.
